Results on three molecules are retold here after patent US20250189516A1, “PHOSPHORYLATION OF P53 AS A PROGNOSTIC OR DIAGNOSTIC MARKER FOR THE TREATMENT OF SENESCENT CELLS IN A MAMMAL” (CLEARA BIOTECH B.V., priority 2022, published 2025).

Square brackets hold non-standard residues; d marks the D form. Ends that are not written are not given here.

For assay [1], the system named is human breast cancer cell lines. In words: MTS viability assay in human breast cancer cell lines versus number of PML bodies (FIG. 7). Format: cell-based. An excerpt: Spearman's rank correlation coefficient (0.93) given; B) Correlation of open P53 (Pab240 clone) and P53 pSer392 (EP155Y clone) staining in a panel of eight human breast cancer lines including luminal, Her2 positive and triple-negative. Spearman's rank correlation coefficient (0.88) given; and C) Association between PML body count/nuclear pixel (to correct for variation in nucleus size between lines) and nuclear P53 pSer392 staining intensity in eight human breast cancer lines plotted against the effective dose inducing cell death in 50% of the population (ED50, as measured by MTS assay) after treatment with CL04177 for these cell lines. Sensitive cell lines are highlighted by the box.
To study the selectivity of different therapies for cancer cells, colorimetric-based cytotoxicity assays were performed two days following treatments. […] The resulting colorimetric reactions were read at 490 nm on a Microplate Absorbance Reader. Relative survival was determined by normalization of the results to Mock (=100% alive). […]
Six days after treatment, cells were incubated with 10 μl CellTiter 96® AQueous One Solution Cell Proliferation Assay (Promega) for 1 hour at 37° C. to perform an MTS assay. Subsequently, absorbance was measured at 490 nm using a Spectramax M5e.

Assay [2] deals with MDA-MB-231 firefly luciferase-containing cells, metastases. In words: Anti-metastatic activity in vivo in an orthotopic TNBC model (FIG. 8). Also noted: species or system NSG mice. The method, then: PBS-treated mice developed metastatic growth visible by bioluminescence.
Approval for this study was obtained by the local University Animal Experimental Committee at the University Medical Center Utrecht (IVD-UMC; WP numbers 9124-1-02 and −05). MDA-MB-231 firefly luciferase-containing cells were transplanted orthotopically into the exposed inguinal mammary fat pad as single cells at a density of 1 millionn cells in 50 ul of a medium into NSG mice (NOD.Cg-PrkdcIL2rgmWij/Szj) (stock 005557). Carprofen was injected s.c. as analgesia following the surgery. Animals were purchased from Charles River and maintained in a pathogen-free environment.
Tumor growth dynamics were quantified in mice with established tumors (>50 mm3). […] After 2 weeks of recovery, mice were sacrificed. For in vivo dosing, the peptides were dissolved in PBS. We used 11 mice per group that were randomly assigned to the different treatment groups before the start of the experiment.
To visualize tumor burden in a live mouse, mice were injected with luciferin substrate i.p. at 150 mg/kg, and imaged under isoflurane anesthesia 15 min later using a bioluminescence imager. The M3Vision software was used to analyze the bioluminescence signal by taking a region of interest (ROI) around the primary tumor to evaluate the BL signal from the tumor or around the upper abdomen and chest of the mouse to evaluate the signal from metastases. The signal was measured in photons/s/cm2.

The test system of assay [3] is triple-negative breast cancer cell line MDAMB231. In words: Immunofluorescence of MDAMB231 cells surviving the LD50 dose (FIG. 13). Format: cell-based, human. The settings on record: staining two days later, survivors have low PML and p53 (S392). The method, then:
A) The triple-negative breast cancer cell line MDAMB231 was treated with the LD50 dose, determined in previous assays. Two days later, an immunofluorescence staining was performed for the indicated proteins. B) Therapy-survivors are made up primarily of cells with low levels of these proteins.
(§1) To study the selectivity of different therapies for cancer cells, colorimetric-based cytotoxicity assays were performed two days following treatments. Cells from several different cancer types (breast, ovarian, pancreas, gastric lung and liver cancer) were cultured in 96-wells plates with 4000 cells per well. These were treated with a serial dilution of compounds in triplicates and mock-treatments ([…], since peptides were dissolved therein). The AQeousOne Solution Cell Proliferation Assay Kit was used to assess cell viability, according to the manufacturer's instructions. In short, the old medium was removed and 100 μl of fresh medium and 10 μl of CellTiter AQueousOne solution were added to each well. The plates were incubated for 1 hour at 37° C. The resulting colorimetric reactions were read at 490 nm on a Microplate Absorbance Reader. Relative survival was determined by normalization of the results to Mock (=100% alive). […]

Assay [4] deals with cancer cell lines with wildtype or "open" p53 conformation. Nature of the assay: Viability curves / ED50 in cell lines from several types of cancer by p53 conformation (FIG. 14). Format: cell-based. The settings on record: cancers with genetic mutations in p53, versus wildtype p53 conformation.
Text: FIG. 14 The CL04177 peptide targets cells from multiple types of cancer, with a higher selectivity towards cell lines that are genetically predisposed towards expressing p53 in its “open” conformation through TP53 mutations. Viability curves exemplifying the response to the peptide for two cell lines, A) A2780 that has a wildtype p53 conformation and B) H23, which contains p53 with an “open” conformation based on genetic mutations in p53.
as §1

For assay [5], the system named is CRC29 colorectal cancer organoid line, liver metastases. Nature of the assay: Colorectal cancer organoid CRC29 caecum implant model, liver metastasis (FIG. 9). The assay is classed as in vivo, immunodeficient mice. The settings on record: 50 mg/kg 5-FU, 3 doses of 2.5 mg/kg CL04183, versus PBS. Here is the method:
The colorectal cancer organoid line CRC29 was implanted in the caecum of immunodeficient mice. Two weeks after transplantation the animals were treated with either ‘5-Fluorouracil (5-FU) or PBS. […] A) The livers were stained for KU80 or human nucleoli to detect human cancer cells in the mouse organs, together with p-p53 (T55) or PML. B) The number of liver metastases per stained section was counted by eye.
Mouse experiments were performed after approval from the Dutch animal ethics committee (WP number 9124-1-03). NOD.Cg-Prkdcscid Il2rgtm1Wjl/SzJ/J mice were purchased from Charles River and maintained in a pathogen-free environment. The animals were anaesthetized using 75 mg/kg ketamine and 0.5 mg/kg dexmedetomidine injected i.p., while 5 mg/kg carprofen was injected s.c. as analgesia. Subsequently, CRC29 organoids (250000 cells) containing a firefly luciferase construct were transplanted into the caecum in a 10 μl collagen droplet. Two weeks after tumor cell implatation the animals were treated with either 50 mg/kg ‘5-Fluorouracil (5-FU) or PBS. […] Four weeks after transplantation, the mice were sacrificed, and tissues were collected for further processing.

Assay [6] has as its target p53-TAD2 phosphorylated at T55 or S46 (Homo sapiens, UniProt P04637). Nature of the assay: Fluorescence anisotropy binding assay with FITC-labelled p53 peptides (FIG. 3). The settings on record: versus non-phosphorylated p53-TAD2. The method, then:
Data was acquired on a ClarioStar Plus plate reader. Endpoint measurement with 200 flashes per well were performed. An excitation filter with 482 nm wavelength and emission filter with 530 nm were used and gain adjustment as well as focal height adjustment were performed for each measurement. Fluorescence intensity, parallel fluorescence polarization and perpendicular fluorescence polarization were recorded. Data analysis was performed using MARS Version 3.4 (BMG), Microsoft Excel and GraphPad Prism Version 8.
For measurements, 116 μl of a solution of the specific Cleara peptides (ranging from 1 to 100 μM) were prepared. Subsequently 4 μl of FITC-labelled p53 peptides (stock concentration 15 μM, resulting in a final concentration of 500 nM) were added. 35 μl were then transferred in each well of the 384-well plate. Measurements were performed in triplicates. If necessary, this setup was extended with lower concentrations in order to cover strong interactions.
The anisotropy (r) is defined as the ratio of the polarized component to the total intensity (IT):
where the excitation is polarized along the z-axis, emission from the fluorophore is symmetric around the z-axis, so Ix=Iy and […], resulting in:
The obtained anisotropy values for each concentration of CL peptide can be used to determine the binding affinity, by applying following fitting function: […]
Background: In fluorescence polarisation assays a small probe gives low polarisation when free and higher when bound to something large.

[7] abbreviates: daily s.c. for one week, 2.5 mg/kg CL04183, 10 mg/kg CL04177, versus PBS.

Chain of p53-TAD2 phosphorylated at T55 or S46 (P04637 37-57 limits assumed): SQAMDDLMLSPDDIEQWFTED

As to “RKKASSKIEAEILDAFSQNWRRKRPPRRRQRRKKRG ([dR][dK][dK][dA][dS][dS][dK][dI][dE][dA][dE][dI][dL][dD][dA][dF][dS][dQ][dN][dW][dR][dR][dK][dR][dP][dP][dR][dR][dR][dQ][dR][dR][dK][dK][dR]G; listed as Homo sapiens) [CL04177, retro-inverso peptide derived from human FOXO4]”, the “sensitivity of cell lines to the peptide” value was “less sensitive” in assay [1] (breast cancer lines with few PML bodies) and “highly sensitive” in assay [1] (triple-negative lines with high levels of PML bodies). Further, the “effect on liver metastases” value in assay [2] (FIG. 8) is reported as “specifically counteract liver metastases”. In addition, the “incidence of liver metastasis (bioluminescence of tumor cells in the extracted livers)” value in assay [2] (setting [7]) is listed as “decreased the incidence of liver metastasis”. The “incidence of visible metastasis (bioluminescence)” value in assay [2] (setting [7]) is listed as “decreased the incidence of visible metastasis”. In addition, the cell population targeted entry in assay [3] is “targets cells with increased PML bodies and phosphorylated p53”. Also, the “sensitivity (ED50s) of cancers predisposed towards "open" p53” value in assay [4] is recorded as “more sensitive”.

Consider `O=c1[nH]cc(F)c(=O)[nH]1` [5-FU, 5-Fluorouracil], for which the “effect on liver metastases” value in assay [5] is “specifically counteract liver metastases”.

B1: FOXO4: fragment of human FOXO4 (Uniprot ID P98177) from amino acid 86 to 207, recombinant forkhead domain (protein)
chain: GAVTGPRKGGSRRNAWGNQSYAELISQAIESAPEKRLTLAQIYEWMVRTVPYFKDKGDSNSSAGWKNSIRHNLSLHSKFIKVHNEATGKSSWWMLNPEGGKSGKAPRRRAASMDSSSKLLRG
Regarding B1, in assay [6], the “affinity to p53-TAD2 when phosphorylated at T55 or S46” value is reported as “substantially higher affinity”.
